# Test results reported in patent publication US20040122209A1, “Products for regulating the degradation of collagen and methods for identifying same” (Shriners Hospital For Children, priority 2002, published 2004).
# No end group written: not given here.
# Legend:
# Format in all cases: cell-based
# ERK1/2 = assay: Western immunoblot for phosphorylated ERK1/2 in human chondrocytes; conditions: at 15 min; inhibitors added before peptide
# Procedure: To detect activation of MAP kinases (ERK1/2, p38 MAPK, and JNK1/2), first-passaged chondrocytes plated onto 10-cm culture dishes were incubated with CB12-II (SP), USP, TNF-α, native human type II collagen, human fibronectin, and antibodies to α2β1 and α5β1 for 5-60 min. In some experiments, chondrocytes were precultured with U0126 (inhibitor of phosphorylation of MEK1/2, up-stream kinase molecule of ERK1/2) at 1 μM for 1 h, SB203580 (inhibitor of phosphorylation of p38 MAPK) at 1 μM for 1 h, Herbimycin A (tyrosine kinase inhibitor) at 1 μg/ml for overnight, Wortmannin (PI3 kinase inhibitor) at 100 nM for 1 h, and Cytochalasin D (focal adhesion inhibitor) at 3 μM for 30 or 60 min before adding peptides.
# After a variable but designated incubation time, chondrocytes were washed twice with ice cold PBS and lysed in RIPA buffer (10 mM Tris/HCl, pH 7.4, 0.1% SDS, 1% NP-40, 0.1% sodium deoxycholate, 150 mM NaCl, 1 mM EDTA) containing freshly added proteinase and phosphatase inhibitors (1 mM PMSF, 10 μg/ml leupeptin, 1 μg/ml aprotinin, 1 mM Na3VO4, 1 mM NaF). Cell lysate was centrifuged and supernatant was collected. Protein concentration was determined using Bradford's method. Equal amounts of protein were separated on 10% SDS-polyacrylamide gels under reducing conditions and were electrotransferred to a nitrocellulose membrane (Bio-Rad). To block nonspecific binding, the membranes were incubated in PBS containing 5% non-fat milk overnight at 4° C. The membranes were then probed with rabbit antibodies against phosphorylated ERK1/2, p38, and JNK1/2 (New England BioLabs). Antibodies were diluted 1:1000 in PBS containing 0.5% non-fat milk and reacted with the membrane for 1 h at room temperature. Blots were washed with PBS containing 0.1% Tween-20 three times, and incubated for 1 h at room temperature with horseradish peroxidase (HRP)-conjugated goat anti-rabbit IgG (New England BioLabs) diluted 1:2000 with PBS-0.1% Tween 20 for ECL system (Amersham). Then, the membranes were washed with PBS-Tween, and the membranes were detected with the addition of a 1:1 dilution of the ECL detection reagents (Amersham) 1 and 2 for 1 min. The solution was removed, and the membranes were wrapped in plastic wrap and exposed to film for various amounts of time.
# First-passaged confluent human chondrocytes were treated with CB12-II (SP) (10 μM), USP (10 μM), anti-α2β1and α5β1 antibodies, anti-integrin α2β1 blocking antibody, and IL-1β or TNF-α. Cell lysates were immunoblotted using antibody that detects phosphorylated p-ERK1I/2 or p-MEK. In some experiments, U0126 at 10 μM, a specific inhibitor of an upstream molecule, MEK1/2, that activates ERK1/2, and SB203580 at 10 μM, that inhibits p38 MAPK activity, were added to the culture 1 h before peptides, antibodies, and cytokines. Herbimycin A, cytochalasin D, and wortmannin were also used as inhibitors.
# [1] = test system: bovine articular cartilage explant; assay: Collagenase-cleaved type II collagen (COL2-3/4C) in bovine articular cartilage explant culture; conditions: 1 and 10 μM, time- and dose-dependent
# Procedure: (§1) The cartilages were prepared as previously described (Dahlberg, L. et al. (2000) supra. In brief, the cartilage samples were washed three times with basal culture medium containing Dulbecco's modified Eagle's medium (DMEM; Gibco BRL, Life Technologies, Grand Island, N.Y.) with 20 mM HEAPS buffer (pH 7.4) (Gibco BRL), 45 mM NaHCO3, 100 units/ml penicillin, 100 μg/ml streptomycin and 150 μg/ml gentamycin sulphate (Medium A). Full-depth cartilage slices from a single area, around 20 mm×20 mm were cut vertical to the articular surface and then into cubes of approximately 2 mm×2 mm (5-7 cubes were randomly obtained and wet weights about 50-70 mg/well determined).
# (§2) The cartilage was assigned to 48 well plate (ca 40 mg/well) and kept in Medium A supplemented with 50 μg/ml ascorbic acid, 0.1 mg/bovine serum albumin, 50 μg/ml insulin, 5.0 μg/ml and 5.0 μg/ml sodium DMEM alone at 37° C. in 95% air/5% CO2. The cartilage was precultured for 2 days and medium was changed at day 0. Thereafter medium (as described in pellet cultures) was replaced every four days. Various CNBr fragments and/or synthetic peptides were freshly added from day 0 at each medium change. Thereafter, cartilage explants and conditioned media were harvested and stored at −20° C.
# (§3) The cell pellets and cartilage explant cultured for various times were digested for the extraction of collagenase-generated neoepitope COL2-3/4Cshort (Billinghurst, R. C. et al., (1997) supra) and denatured type II collagen epitope COL2-3/4m and total type II collagen (Hollander, A. P. et al. (1994a) supra), as previously described: Briefly, the harvested pellets were incubated overnight with 1.0 mg/ml α-chymotrypsin at 37° C. to cleave and solubilize denatured collagen leaving the above neoepitope and epitope intact. After inhibition of α-chymotrypsin activity with N-tosyl-L-phenelalanine-chloromethyl ketone (Sigma), the samples were centrifuged and the supernatants were removed and boiled for 10 min. The COL2-3/4Cshort epitope (hereafter referred to as COL2-3/4Cshort) generated by cleavage of type II collagen by collagenase (Billinghurst, R. C. et al. (1997) supra) and intrachain epitope (COL2-3/4m) exposed in denatured type II collagen (Hollander, A. P. et al. (1994a) supra) were measured in α-chymotrypsin extracts by immunoassay. The COL2-3/4Cshort epitope is detected in an ELISA assay using a rabbit antibody to the carboxyterminal cleavage neoepitope on the TCA piece generated by primary collagenase cleavage of type II collagen. The release of the COL2-3/4C epitope into media was also measured by immunoassay. Total contents in tissue/cells and media was recorded for COL2-3/^4Cshort epitope. The COL2-3/4m epitope was recorded in cells and tissue where it was concentrated. The remaining residues of pellets and explants were digested overnight with 1.0 mg/ml proteinase K at 56° C. to extract the remaining intact type II collagen and then boiled for 10 min to denature the enzyme. Total type II collagen content in the pellets and explant was determined from the collective amount of COL2-3/4m in both the α-chymotrypsin and proteinase K digests.
# [2] = test system: bovine articular cartilage explant; assay: Proteoglycan (GAG) content and release in bovine explant culture; conditions: subpeptides at 1 and 10 μM
# Procedure: The cartilages were prepared as previously described (Dahlberg, L. et al. (2000) supra. In brief, the cartilage samples were washed three times with basal culture medium containing Dulbecco's modified Eagle's medium (DMEM; Gibco BRL, Life Technologies, Grand Island, N.Y.) with 20 mM HEAPS buffer (pH 7.4) (Gibco BRL), 45 mM NaHCO3, 100 units/ml penicillin, 100 μg/ml streptomycin and 150 μg/ml gentamycin sulphate (Medium A). Full-depth cartilage slices from a single area, around 20 mm×20 mm were cut vertical to the articular surface and then into cubes of approximately 2 mm×2 mm (5-7 cubes were randomly obtained and wet weights about 50-70 mg/well determined). The cartilage was assigned to 48 well plate (ca 40 mg/well) and kept in Medium A supplemented with 50 μg/ml ascorbic acid, 0.1 mg/bovine serum albumin, 50 μg/ml insulin, 5.0 μg/ml and 5.0 μg/ml sodium DMEM alone at 37° C. in 95% air/5% CO2. The cartilage was precultured for 2 days and medium was changed at day 0. Thereafter medium (as described in pellet cultures) was replaced every four days. Various CNBr fragments and/or synthetic peptides were freshly added from day 0 at each medium change. Thereafter, cartilage explants and conditioned media were harvested and stored at −20° C. In order to show the specificity of the peptide fragments of one embodiment on degradation of type II collagen as compared with proteoglycan, primarily aggrecan, sulphated glycosaminoglycan (GAG) content was determined in both the α-chymotrypsin and proteinase K digests for total proteoglycan (predominantly aggrecan) content in cell pellets, cartilage explants and also in conditioned media. Measurement of release of proteoglycan into media was tested using dimethylene blue dye binding as previously described (Dahlberg, L. et al. (2000) supra).
# [3] = test system: normal human adult articular cartilage explants; assay: Type II collagen cleavage by collagenase (COL2-3/4C) in human articular cartilage explant culture; conditions: by day 16
# Procedure: Human femoral chondylar cartilages were obtained at autopsy within 18 hours of death from adult persons with no known history of arthritis and no macroscopic signs of articular degeneration. None of the persons had diabetes or had received chemotherapy prior to autopsy. Adult bovine articular cartilage was obtained from adults/bovine steers and cows from metacarpalphalangeal joints obtained at the abbatoir immediately after slaughter. All cartilage specimens were removed immediately to the laboratory under sterile conditions.
# as §1, §2, §3
# MMP-1 = assay: ELISA for MMP-1 in conditioned medium of human chondrocytes; conditions: 48 hours; CB12-II 50 μM, TNF-α 50 ng/ml
# Procedure: (§4) First-passaged normal human chondrocytes isolated by the method described above and cultured at high density (2×10^5 cells/cm^2) were trypsinized and resuspended in Medium A containing 1% FCS at a density of 10^6 cells/ml. Then, 200 μl of the cell suspension was each plated onto round-bottomed 96-well culture plate. On the next day after plating, CB12-II at 50 μM, USP at 50 μM, and TNF-α at 50 ng/ml were added to the culture media, and the culture was maintained for 24-48 hours. Conditioned media were collected and subjected to ELISA assay. The ELISA kits (BIOTRAK) for MMP-1 and MMP-13 were purchased from Amersham Pharmacia Biotech (Piscataway, N.J.). Measurement range was 6.25-100 ng/ml for MMP-1 and 0.094-3 ng/ml for MMP-13. Sensitivity for the assay was 1.7 ng/ml for MMP-1 and 0.7 ng/ml for MMP-13.
# (§5) Protein levels of MMP-1 and MMP-13 were also tested by incubating isolated human chondrocytes for 48 hours in high density culture (10^6 cells/ml) with CB12-II, negative control peptide USP, or cytokine TNF-α, as discussed above. MMP-1 and MMP-13 secretion into medium from the cells was measured using ELISA (see FIGS. 9A and 9B).
# MMP-13 = assay: ELISA for MMP-13 in conditioned medium of human chondrocytes; conditions: 48 hours; CB12-II 50 μM, TNF-α 50 ng/ml
# Procedure: as §4, §5
Compound,inhibition of phosphorylation of ERK1/2 induced by CB12-II (ERK1/2),effect of removal of hydroxylation at a single proline residue on activity of CB12-II (SP) [3],also measured
"N#CC(=C(/N)Sc1ccccc1N)/C(C#N)=C(\N)Sc1ccccc1N [Peptide U0126, reference compound]",inhibited,,
"GLPGVKGHRGYPGLDGAKGEAGAPG [CB12-III, subpeptide of the CB12 peptide of type II collagen]",,,induction of total collagenase cleavage of type II collagen by CB12 subpeptides [1]: less activity; proteoglycan breakdown [2]: no significant effect
GERGPP*GPQGARGFPGTP*GLP*GVK [SP15],,reduced potency,
GERGPP*GPQGARGFP*GTPGLP*GVK [SP18],,reduced potency,
"GEAGAPGVKGESGSPGQNGSPGPM (not fully specified) [CB12-IV, subpeptide of CB12; used as non-specific / negative control peptide (USP)]",,,induction of total collagenase cleavage of type II collagen by CB12 subpeptides [1]: less activity; proteoglycan breakdown [2]: no significant effect
"CO[C@H]1[C@@H](OC)C[C@H](C)[C@@H](OC)C2=CC(=O)C=C(NC(=O)/C(C)=C/C=C\[C@H](OC)[C@@H](OC(N)=O)/C(C)=C/[C@@H]1C)C2=O [Herbimycin A, reference compound]",inhibited,,
GERGPPGPQGARGFP*GTP*GLP*GVK [SP6],,no effect on activity,
"C=C1[C@@H](C)[C@H]2[C@H](Cc3ccccc3)NC(=O)[C@]23[C@H](OC(C)=O)/C=C/[C@@](C)(O)C(=O)[C@@H](C)C/C=C/[C@H]3[C@@H]1O [Cytochalasin D, reference compound]",inhibited,,
"GPRGPPGPPGKPGDDGEAGKPGKSGERGPPG [CB12-I, subpeptide of the CB12 peptide of type II collagen]",,,induction of total collagenase cleavage of type II collagen by CB12 subpeptides [1]: less activity; proteoglycan breakdown [2]: no significant effect
"C[S+]([O-])c1ccc(-c2nc(-c3ccncc3)c(-c3ccc(F)cc3)[nH]2)cc1 (stereo not shown) [SB203580, reference compound]",not,,
GERGPP*GPQGARGFP*GTP*GLPGVK [SP21],,no effect on activity,
TNF-α,,,MMP-1 secretion into medium versus no peptide and negative control peptide (USP) (MMP-1): significantly higher; MMP-13 secretion into medium versus no peptide and negative control peptide (USP) (MMP-13): significantly higher
